Assay results taken from paper PMC7594721, “Synthesis and biological activity of 2-cyanoacrylamide derivatives tethered to imidazopyridine as TAK1 inhibitors” (Journal of Enzyme Inhibition and Medicinal Chemistry, 2020).

Columns and labels:
Experiment in all cases: Kinase HotSpot profiling (Reaction Biology Corp.)
Assay type in all cases: biochemical
Conditions in all cases: ATP at Km
[1] = biological target: T1, BRAF (Homo sapiens, UniProt P15056)
T1 construct: purchased Reaction Biology Corp
Description: (§1) Kinase assays were performed by Invitrogen (now Thermo Fisher Scientific, Waltham, MA) or Reaction Biology Corp. (Malvern, PA). Inhibitory activity of compounds for TAK1 was evaluated using LanthaScreen® Eu Kinase Binding Assay (Invitrogen, Waltham, MA). The kinase profile of compound 13h was determined by the kinase HotSpot Profiling service of Reaction Biology Corporation. All assays were performed at Km for ATP.

[2] = biological target: T2, ASK1/MAP3K5 (Homo sapiens, UniProt Q99683)
T2 construct: purchased Reaction Biology Corp
T2 sequence (Q99683 1-1374): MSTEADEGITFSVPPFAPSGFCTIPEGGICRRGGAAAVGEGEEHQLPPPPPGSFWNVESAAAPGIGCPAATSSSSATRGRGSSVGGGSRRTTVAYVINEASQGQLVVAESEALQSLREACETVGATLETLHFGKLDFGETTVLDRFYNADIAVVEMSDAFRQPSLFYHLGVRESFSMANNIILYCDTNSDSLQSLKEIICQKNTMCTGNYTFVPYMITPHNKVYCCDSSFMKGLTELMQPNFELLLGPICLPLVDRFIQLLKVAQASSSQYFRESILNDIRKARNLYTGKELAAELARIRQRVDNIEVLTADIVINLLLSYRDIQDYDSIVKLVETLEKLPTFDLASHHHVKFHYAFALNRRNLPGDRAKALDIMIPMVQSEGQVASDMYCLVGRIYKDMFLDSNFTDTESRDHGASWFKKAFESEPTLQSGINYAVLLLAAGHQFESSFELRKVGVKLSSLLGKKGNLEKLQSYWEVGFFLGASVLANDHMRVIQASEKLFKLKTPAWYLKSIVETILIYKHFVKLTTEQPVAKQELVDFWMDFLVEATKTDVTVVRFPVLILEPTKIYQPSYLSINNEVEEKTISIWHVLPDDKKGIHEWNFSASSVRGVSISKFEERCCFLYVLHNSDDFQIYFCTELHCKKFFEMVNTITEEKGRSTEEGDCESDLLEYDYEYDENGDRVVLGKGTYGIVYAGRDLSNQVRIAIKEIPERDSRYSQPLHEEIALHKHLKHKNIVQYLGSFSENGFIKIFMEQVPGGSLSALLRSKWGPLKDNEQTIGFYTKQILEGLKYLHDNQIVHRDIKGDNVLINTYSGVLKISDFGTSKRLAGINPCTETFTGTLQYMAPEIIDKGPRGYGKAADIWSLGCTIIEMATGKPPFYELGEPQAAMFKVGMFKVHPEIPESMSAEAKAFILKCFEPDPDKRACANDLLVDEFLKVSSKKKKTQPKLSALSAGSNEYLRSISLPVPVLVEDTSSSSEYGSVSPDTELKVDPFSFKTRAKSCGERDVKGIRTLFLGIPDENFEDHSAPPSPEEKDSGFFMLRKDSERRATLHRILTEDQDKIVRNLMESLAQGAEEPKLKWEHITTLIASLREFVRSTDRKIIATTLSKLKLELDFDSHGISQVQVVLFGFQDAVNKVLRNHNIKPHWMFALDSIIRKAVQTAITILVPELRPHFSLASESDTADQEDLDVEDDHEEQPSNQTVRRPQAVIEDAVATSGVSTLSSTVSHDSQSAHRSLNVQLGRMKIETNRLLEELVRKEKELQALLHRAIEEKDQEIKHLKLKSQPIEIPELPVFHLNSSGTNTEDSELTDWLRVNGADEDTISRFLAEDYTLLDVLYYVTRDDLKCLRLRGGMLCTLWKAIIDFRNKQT
Description: as §1

[3] = biological target: T3, MLK1/MAP3K9 (Homo sapiens, UniProt P80192)
T3 construct: purchased Reaction Biology Corp
Description: as §1

[4] = biological target: T4, MEK2/MAP2K2 (Homo sapiens, UniProt P36507)
T4 construct: purchased Reaction Biology Corp
Description: as §1

[5] = biological target: T5, MEKK2 (Homo sapiens, UniProt Q9Y2U5)
T5 construct: purchased Reaction Biology Corp
T5 sequence (Q9Y2U5 1-619): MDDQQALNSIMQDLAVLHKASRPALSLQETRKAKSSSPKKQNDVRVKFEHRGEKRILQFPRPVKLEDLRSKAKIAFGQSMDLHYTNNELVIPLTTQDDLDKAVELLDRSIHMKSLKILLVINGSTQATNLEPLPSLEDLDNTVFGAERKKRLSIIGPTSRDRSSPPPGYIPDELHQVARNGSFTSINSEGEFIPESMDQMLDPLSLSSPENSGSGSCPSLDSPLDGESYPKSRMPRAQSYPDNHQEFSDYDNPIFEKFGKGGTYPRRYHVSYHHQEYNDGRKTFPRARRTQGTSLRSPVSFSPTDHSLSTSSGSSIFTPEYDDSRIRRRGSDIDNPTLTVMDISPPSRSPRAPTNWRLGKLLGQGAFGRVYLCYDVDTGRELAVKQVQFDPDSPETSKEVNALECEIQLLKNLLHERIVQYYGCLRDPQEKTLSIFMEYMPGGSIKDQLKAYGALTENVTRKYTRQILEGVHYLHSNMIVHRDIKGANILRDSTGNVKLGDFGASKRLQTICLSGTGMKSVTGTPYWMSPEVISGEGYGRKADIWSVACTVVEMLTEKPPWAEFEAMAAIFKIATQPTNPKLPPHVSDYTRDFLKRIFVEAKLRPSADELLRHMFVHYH
Description: as §1

T1 sequence (P15056 whole entry): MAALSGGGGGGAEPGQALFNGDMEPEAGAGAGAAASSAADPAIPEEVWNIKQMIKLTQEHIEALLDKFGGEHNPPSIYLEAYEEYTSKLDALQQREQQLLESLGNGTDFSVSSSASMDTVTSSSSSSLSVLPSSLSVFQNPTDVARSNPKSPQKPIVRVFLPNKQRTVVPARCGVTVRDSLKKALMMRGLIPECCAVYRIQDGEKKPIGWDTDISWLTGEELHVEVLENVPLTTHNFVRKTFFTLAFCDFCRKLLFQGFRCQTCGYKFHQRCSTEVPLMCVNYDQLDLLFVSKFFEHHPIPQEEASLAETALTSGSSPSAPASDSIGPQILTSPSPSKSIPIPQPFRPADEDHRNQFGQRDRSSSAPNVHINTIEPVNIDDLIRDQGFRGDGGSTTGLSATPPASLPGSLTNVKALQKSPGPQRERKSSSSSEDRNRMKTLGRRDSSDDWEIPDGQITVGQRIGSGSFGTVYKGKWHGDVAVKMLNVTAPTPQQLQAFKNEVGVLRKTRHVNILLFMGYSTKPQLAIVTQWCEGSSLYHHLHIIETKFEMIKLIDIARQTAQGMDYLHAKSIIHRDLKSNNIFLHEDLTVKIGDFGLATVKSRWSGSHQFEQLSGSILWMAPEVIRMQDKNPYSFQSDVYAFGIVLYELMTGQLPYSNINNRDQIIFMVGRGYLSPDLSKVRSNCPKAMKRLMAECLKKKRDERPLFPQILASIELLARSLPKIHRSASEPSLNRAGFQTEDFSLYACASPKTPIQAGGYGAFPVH
T4 sequence (P36507 whole entry): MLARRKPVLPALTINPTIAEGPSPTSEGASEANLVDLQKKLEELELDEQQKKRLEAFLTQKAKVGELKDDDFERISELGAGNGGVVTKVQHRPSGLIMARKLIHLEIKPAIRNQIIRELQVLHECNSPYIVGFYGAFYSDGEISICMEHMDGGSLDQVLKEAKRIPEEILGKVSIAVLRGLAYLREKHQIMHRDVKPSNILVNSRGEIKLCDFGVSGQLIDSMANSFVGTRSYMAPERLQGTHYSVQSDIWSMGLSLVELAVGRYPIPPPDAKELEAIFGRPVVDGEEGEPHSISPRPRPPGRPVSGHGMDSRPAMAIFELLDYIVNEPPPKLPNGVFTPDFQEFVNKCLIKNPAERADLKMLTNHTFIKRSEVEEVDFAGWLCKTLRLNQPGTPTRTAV
T3 sequence (P80192 whole entry): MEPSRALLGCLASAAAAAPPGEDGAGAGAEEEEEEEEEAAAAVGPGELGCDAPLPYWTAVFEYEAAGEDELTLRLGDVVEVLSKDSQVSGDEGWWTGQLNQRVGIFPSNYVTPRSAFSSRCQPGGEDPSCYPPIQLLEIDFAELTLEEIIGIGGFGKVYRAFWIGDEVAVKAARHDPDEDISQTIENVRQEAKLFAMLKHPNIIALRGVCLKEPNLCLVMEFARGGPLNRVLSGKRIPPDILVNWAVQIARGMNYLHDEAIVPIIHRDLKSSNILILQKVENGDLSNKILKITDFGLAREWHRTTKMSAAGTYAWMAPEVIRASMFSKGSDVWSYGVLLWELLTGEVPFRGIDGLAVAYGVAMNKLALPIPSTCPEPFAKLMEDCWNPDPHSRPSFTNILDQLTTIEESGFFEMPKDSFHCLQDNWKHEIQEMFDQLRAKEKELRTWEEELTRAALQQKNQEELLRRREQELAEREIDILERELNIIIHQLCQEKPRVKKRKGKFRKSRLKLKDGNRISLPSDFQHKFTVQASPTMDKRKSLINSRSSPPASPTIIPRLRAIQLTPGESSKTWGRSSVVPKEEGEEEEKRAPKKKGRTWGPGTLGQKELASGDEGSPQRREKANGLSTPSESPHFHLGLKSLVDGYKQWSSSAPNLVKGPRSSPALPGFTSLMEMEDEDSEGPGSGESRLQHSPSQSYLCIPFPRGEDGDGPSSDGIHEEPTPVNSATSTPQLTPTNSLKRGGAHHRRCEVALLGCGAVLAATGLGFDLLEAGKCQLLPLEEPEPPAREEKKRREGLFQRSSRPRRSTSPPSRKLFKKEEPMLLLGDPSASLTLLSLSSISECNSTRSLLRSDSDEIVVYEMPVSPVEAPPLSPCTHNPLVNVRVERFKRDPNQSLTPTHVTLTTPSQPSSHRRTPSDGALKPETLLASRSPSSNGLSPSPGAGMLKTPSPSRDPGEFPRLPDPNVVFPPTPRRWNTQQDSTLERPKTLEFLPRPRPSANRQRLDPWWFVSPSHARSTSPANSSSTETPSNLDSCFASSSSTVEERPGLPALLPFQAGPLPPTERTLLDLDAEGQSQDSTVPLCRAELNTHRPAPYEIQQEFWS

inhibition at 1 µM [1]: 0%
inhibition at 1 µM [2]: 4%
inhibition at 1 µM [3]: 35 ± 1.2%
inhibition at 1 µM [4]: 23 ± 1.9%
inhibition at 1 µM [5]: 0%
SMILES: Cc1cccc(/C=C(\C#N)C(=O)N[C@@H]2CCN(c3c(Cl)cnc4[nH]c(-c5ccc(N6CCN(C)CC6)cc5)nc34)C2)n1 [Compound 13h, (R,E)-N-(1–(6-chloro-2–(4-(4-methylpiperazin-1-yl)phenyl)-3H-imidazo[4,5-b]pyridin-7-yl)pyrrolidin-3-yl)-2-cyano-3-(6-methylpyridin-2-yl)acrylamide]
